Results from patent US20230149398A1, “TOPICAL PHARMACEUTICAL COMPOSITIONS COMPRISING IMIDAZO[1,2-B]PYRIDAZINE COMPOUNDS” (BenevolentAI Bio Limited, priority 2020, published 2023).

System: RHE cultures (ZenSkin)
Assay: RHE irritancy test (MTT viability of RHE cultures)
Assay type: cell-based
Details: 30 μL applied for 1 hour, MTT after 42 hours, relative to negative control (water), n=3
Description: RHE cultures (ZenSkin®) (surface area=0.33 cm^2) were equilibrated overnight in a humidified incubator at 37° C. and 5% CO2. The next day RHE were removed from the incubator and inspected for residual liquid on the apical surface. Excess moisture was removed with sterile cotton swab and 30 μL of a topical pharmaceutical composition was applied to triplicate cultures (n=3). Sterile water served as a negative control and 1% Triton X-100 served as positive control. Once treated, RHE cultures were returned to the incubator for 1 hour and then gently washed to remove test substance. The washed inserts were then transferred to new 12 well plates prefilled with fresh 0.5 mL media. […]
After 42-hour incubation, the tissue cultures were transferred to a new plate containing fresh MTT substrate in tissue media and placed in the incubator at 37° C. and 5% CO2 for 2 hours. […] Optical density was measured at 570 nm without using a reference filter. […]
Percent cell viability was calculated as follows: 100×[OD(sample)/OD(neg control)]. […] The test formulations were classified as irritant or non-irritant based on EU and GHS classification, according to which an irritant (R38/Category 2) is determined if the mean relative tissue viability of tissues exposed to test material is reduced below 50% of the negative control.

For triton X-100, the Mean percent viability was < 20%.
